Our source for the GI50 and IC50 values is patent US11008337B2, “Chiral diaryl macrocycles as modulators of protein kinases” (Turning Point Therapeutics, Inc., priority 2015, dated 2021).

Each structure is given as a SMILES string.

What all share (assay type): cell-based
One assay deals with T1, CD74-ROS1 Ba/F3 (Homo sapiens, UniProt P08922).
T1 construct: fused on or other part: P04233 (HLA class II histocompatibility antigen gamma chain)
In words: Cell proliferation assay, CD74-ROS1 Ba/F3 stable cell line (CellTiter-Glo). To be noted: Ba/F3-CD74-ROS1 wild type cells, 72 hours compound incubation; read-out: Cell Proliferation IC50 CD74-ROS1 Ba/F3. The source says: Creation of CD74-ROS1 and EML4-ALK Ba/F3 Stable Cell Lines and Cell Proliferation Assays.
The CD74-ROS1 wild-type gene and EML4-ALK wild-type gene (variant 1) were synthesized at GenScript and cloned into pCDH-CMV-MCS-EF1-Puro plasmid (System Biosciences, Inc). Ba/F3-CD74-ROS1 and Ba/F3-EML4-ALK wild type cell lines were generated by infecting Ba/F3 cells with lentivirus containing CD74-ROS1 wide-type and EML4-ALK wild type. Stable cell lines were selected by puromycin treatment, followed by IL-3 withdrawal. 3000 cells were seeded in 384 well white plate overnight before compound treatment. Cell proliferation was measured using CellTiter-Glo luciferase-based ATP detection assay (Promega) following the manufactures's protocol after 72 hours of various concentration of compound incubation. IC50 determinations were performed using GraphPad Prism software (GraphPad, Inc., San Diego, Calif.).

Another assay addresses T2, EML4-ALK Ba/F3 (Homo sapiens, UniProt Q9UM73).
T2 construct: fused on or other part: Q9HC35 (Echinoderm microtubule-associated protein-like 4)
The assay can be described thus: Cell proliferation assay, EML4-ALK Ba/F3 stable cell line (CellTiter-Glo). The following applies: Ba/F3-EML4-ALK wild type (variant 1) cells, 72 hours compound incubation; read-out: Cell Proliferation IC50 EML4-ALK Ba/F3. A digest of the protocol: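 Ba/F3 cells were lentivirally transduced with wild-type CD74-ROS1 or EML4-ALK (variant 1), selected with puromycin and made IL-3-independent. Cells (3000/well) were seeded overnight and then treated with the compounds at various concentrations for 72 h. Proliferation was read by CellTiter-Glo ATP luminescence, and IC50 values were fitted.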

The test system of assay [1] is T cell lymphoma Karpas-299 cell line (harboring endogenous NPM-ALK fusion gene). In words: Cell proliferation assay, Karpas-299 cells (CellTiter-Glo). The following applies: Homo sapiens, 72 hours incubation. As for the experimental part: Cell Proliferation Assays.
Colorectal cell lines KM 12 (harboring endogenous TPM3-TRKA fusion gene) cells were cultured in DMEM medium, supplemented with 10% fetal bovine serum and 100 U/mL of penicillin/streptomycin. 5000 cells were seeded in 384 well white plate for 24 hours before compounds treatment. Cell proliferation was measured using CellTiter-Glo luciferase-based ATP detection assay (Promega) following the manufactures's protocol after 72 hours incubation. IC50 determinations were performed using GraphPad Prism software (GraphPad, Inc., San Diego, Calif.). Alternatively, essential thrombocythemia cell line SET-2 cells (harboring endogenous JAK2 […] point mutation) or T cell lymphoma Karpas-299 cell line (harboring endogenous NPM-ALK fusion gene) were cultured in RPMI medium, supplemented with 10% fetal bovine serum and 100 U/mL of penicillin/streptomycin. 5000 cells were seeded in 384 well white plate for 24 hours before compounds treatment. Cell proliferation was measured using CellTiter-Glo luciferase-based ATP detection assay (Promega) following the manufactures's protocol after 72 hours incubation. IC50 determinations were performed using GraphPad Prism software (GraphPad, Inc., San Diego, Calif.).

Assay [2] has as its system Colorectal cell lines KM 12 (harboring endogenous TPM3-TRKA fusion gene). In words: Cell proliferation assay, KM12 cells (CellTiter-Glo). To be noted: Homo sapiens, 72 hours incubation.
Assay [3] deals with essential thrombocythemia cell line SET-2 cells (harboring endogenous JAK2 point mutation). In words: Cell proliferation assay, SET-2 cells (CellTiter-Glo). The following applies: Homo sapiens, 72 hours incubation, read-out: Cell Proliferation IC50 SET2. A digest of the protocol: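 Karpas-299 (NPM-ALK) or SET-2 (JAK2 […]) cells in RPMI with 10% FBS, seeded 24 h before compound addition. Viability read by CellTiter-Glo ATP luminescence after 72 h incubation; IC50 derived from dose–response curves.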

T2 sequence (Q9UM73 whole entry, change not shown, the tested form may be a part): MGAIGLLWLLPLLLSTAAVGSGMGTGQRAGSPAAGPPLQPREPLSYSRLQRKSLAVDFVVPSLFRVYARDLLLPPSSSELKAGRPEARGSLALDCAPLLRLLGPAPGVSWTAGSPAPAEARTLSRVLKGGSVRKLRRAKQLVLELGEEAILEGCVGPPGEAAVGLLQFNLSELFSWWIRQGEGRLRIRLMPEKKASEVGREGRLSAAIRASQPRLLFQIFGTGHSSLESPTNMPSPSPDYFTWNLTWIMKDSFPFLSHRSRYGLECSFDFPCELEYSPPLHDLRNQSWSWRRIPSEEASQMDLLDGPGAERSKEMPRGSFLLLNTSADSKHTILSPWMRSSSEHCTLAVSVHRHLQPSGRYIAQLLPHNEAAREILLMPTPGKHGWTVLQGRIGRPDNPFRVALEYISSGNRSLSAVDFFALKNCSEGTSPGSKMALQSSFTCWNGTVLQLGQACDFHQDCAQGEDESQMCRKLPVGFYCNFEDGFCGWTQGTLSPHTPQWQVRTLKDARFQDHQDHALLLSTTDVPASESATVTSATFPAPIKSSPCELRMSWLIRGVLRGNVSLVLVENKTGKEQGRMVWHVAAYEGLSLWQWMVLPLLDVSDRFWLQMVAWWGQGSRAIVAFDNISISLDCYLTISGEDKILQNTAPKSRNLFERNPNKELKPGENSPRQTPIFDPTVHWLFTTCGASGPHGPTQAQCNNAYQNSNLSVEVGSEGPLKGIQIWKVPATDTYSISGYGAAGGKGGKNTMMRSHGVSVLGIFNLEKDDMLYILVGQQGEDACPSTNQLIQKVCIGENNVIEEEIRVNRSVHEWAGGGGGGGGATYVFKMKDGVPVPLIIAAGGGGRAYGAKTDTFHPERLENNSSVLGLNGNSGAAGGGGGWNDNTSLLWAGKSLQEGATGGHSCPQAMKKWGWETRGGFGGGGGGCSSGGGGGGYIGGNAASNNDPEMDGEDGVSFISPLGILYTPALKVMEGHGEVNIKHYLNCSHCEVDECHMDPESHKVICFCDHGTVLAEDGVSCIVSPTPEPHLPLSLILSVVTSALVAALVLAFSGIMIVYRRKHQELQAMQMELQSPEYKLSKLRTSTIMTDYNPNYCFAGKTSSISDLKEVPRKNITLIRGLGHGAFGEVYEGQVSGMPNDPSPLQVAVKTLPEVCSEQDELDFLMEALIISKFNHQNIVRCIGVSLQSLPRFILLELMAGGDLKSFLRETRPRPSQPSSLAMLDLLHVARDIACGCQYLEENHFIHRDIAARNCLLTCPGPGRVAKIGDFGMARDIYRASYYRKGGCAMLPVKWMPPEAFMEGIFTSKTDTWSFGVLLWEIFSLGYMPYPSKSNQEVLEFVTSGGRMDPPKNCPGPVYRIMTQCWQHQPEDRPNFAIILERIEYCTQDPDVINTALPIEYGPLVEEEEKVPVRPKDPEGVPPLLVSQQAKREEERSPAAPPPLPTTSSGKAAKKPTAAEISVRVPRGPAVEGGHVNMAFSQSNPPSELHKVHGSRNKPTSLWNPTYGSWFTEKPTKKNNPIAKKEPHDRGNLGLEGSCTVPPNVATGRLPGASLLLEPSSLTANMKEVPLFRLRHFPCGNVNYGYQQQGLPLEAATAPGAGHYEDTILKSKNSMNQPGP
T1 sequence (P08922 whole entry, change not shown, the tested form may be a part): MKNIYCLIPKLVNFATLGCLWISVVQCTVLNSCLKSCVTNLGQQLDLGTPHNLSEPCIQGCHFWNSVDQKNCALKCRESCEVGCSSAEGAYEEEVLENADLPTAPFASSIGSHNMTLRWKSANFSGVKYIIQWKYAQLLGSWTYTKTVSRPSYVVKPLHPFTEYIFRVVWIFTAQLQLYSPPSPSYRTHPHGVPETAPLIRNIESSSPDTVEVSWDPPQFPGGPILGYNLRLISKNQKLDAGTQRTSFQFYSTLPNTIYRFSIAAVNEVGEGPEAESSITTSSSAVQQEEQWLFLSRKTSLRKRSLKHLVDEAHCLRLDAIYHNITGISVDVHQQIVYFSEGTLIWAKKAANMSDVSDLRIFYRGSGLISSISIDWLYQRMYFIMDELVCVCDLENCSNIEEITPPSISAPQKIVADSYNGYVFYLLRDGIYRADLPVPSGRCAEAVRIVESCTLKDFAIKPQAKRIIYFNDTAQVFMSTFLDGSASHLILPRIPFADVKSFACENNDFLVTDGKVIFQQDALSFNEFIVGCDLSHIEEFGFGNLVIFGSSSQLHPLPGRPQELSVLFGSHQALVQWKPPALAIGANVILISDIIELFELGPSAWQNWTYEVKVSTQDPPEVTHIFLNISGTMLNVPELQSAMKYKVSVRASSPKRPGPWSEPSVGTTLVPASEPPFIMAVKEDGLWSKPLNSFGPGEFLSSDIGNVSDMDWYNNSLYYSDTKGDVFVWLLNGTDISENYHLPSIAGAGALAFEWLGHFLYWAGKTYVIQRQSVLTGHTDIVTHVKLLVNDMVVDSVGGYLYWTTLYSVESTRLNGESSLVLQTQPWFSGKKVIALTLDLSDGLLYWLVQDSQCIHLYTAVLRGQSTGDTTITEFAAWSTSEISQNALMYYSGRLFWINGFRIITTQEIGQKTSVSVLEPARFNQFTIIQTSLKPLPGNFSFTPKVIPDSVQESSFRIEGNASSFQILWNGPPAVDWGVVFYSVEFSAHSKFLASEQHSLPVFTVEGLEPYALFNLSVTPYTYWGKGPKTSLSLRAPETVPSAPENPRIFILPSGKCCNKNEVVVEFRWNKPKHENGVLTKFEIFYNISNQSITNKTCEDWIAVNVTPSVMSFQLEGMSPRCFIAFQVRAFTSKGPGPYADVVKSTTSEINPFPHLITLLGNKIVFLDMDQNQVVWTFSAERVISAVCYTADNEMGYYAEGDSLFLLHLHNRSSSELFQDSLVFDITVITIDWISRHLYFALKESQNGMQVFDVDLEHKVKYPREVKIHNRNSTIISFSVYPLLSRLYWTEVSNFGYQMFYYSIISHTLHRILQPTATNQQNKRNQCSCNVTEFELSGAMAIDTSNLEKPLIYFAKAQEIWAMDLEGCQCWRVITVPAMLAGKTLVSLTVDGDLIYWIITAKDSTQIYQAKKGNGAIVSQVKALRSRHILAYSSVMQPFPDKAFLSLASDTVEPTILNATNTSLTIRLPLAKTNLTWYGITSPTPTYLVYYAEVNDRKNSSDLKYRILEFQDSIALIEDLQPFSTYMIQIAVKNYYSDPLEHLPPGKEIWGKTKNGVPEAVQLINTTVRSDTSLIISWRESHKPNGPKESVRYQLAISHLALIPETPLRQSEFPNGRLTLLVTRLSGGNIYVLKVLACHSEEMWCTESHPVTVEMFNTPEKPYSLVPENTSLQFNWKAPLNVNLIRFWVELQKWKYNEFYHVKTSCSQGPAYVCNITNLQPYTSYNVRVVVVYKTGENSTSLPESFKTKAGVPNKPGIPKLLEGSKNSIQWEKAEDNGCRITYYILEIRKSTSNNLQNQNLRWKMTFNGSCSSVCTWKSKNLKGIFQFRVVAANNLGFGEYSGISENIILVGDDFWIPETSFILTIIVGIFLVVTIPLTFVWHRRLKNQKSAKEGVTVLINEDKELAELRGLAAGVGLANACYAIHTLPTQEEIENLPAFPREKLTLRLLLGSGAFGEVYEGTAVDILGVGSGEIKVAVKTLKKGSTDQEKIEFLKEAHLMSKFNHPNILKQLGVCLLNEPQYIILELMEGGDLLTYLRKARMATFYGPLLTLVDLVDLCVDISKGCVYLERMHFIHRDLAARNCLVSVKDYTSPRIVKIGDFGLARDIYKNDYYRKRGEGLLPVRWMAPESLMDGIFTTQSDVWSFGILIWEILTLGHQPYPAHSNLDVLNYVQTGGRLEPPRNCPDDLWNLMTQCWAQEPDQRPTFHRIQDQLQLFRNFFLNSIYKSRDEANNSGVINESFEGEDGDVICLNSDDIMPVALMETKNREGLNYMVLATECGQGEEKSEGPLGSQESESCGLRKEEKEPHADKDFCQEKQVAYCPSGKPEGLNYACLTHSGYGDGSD

Regarding `C[C@H]1Nc2ccn3ncc(c3n2)C(=O)N[C@H](CO)COc2ccc(F)cc21` [Compound 8, (6R,13R)-11-fluoro-6-(hydroxymethyl)-13-methyl-6,7,13,14-tetrahydro-1,15-ethenopyrazolo[4,3-f][1,4,8,10]benzoxatriazacyclotridecin-4(5H)-one], the GI50 worked out at 34.7 nM at CD74-ROS1 Ba/F3 and 2130 nM on EML4-ALK Ba/F3. Besides, the IC50 in assay [1] is 1500 nM; in assay [2] it was 17 nM; in assay [3] it was 406 nM.

In the case of `C[C@H]1Nc2ccn3ncc(c3n2)C(=O)N[C@@H](C(F)F)COc2ccc(F)cc21` [Compound 16, (6R,13R)-6-(difluoromethyl)-11-fluoro-13-methyl-6,7,13,14-tetrahydro-1,15-ethenopyrazolo[4,3-f][1,4,8,10]benzoxatriazacyclotridecin-4(5H)-one], the GI50 at CD74-ROS1 Ba/F3 worked out at 112 nM; at EML4-ALK Ba/F3, 1910 nM. In addition, the IC50 in assay [1] turned out to be 470 nM; in assay [2], 0.4 nM; in assay [3], 665 nM.

Consider `C[C@H]1Nc2ccn3ncc(c3n2)C(=O)NC[C@H](CO)Oc2ccc(F)cc21` [Compound 5, (7R,13R)-11-fluoro-7-(hydroxymethyl)-13-methyl-6,7,13,14-tetrahydro-1,15-ethenopyrazolo[4,3-f][1,4,8,10]benzoxatriazacyclotridecin-4(5H)-one], for which the GI50 was found to be 27.9 nM at CD74-ROS1 Ba/F3 and 2030 nM at EML4-ALK Ba/F3. For the same molecule, the IC50 in assay [1] came out at 794 nM; in assay [2], 16.5 nM; in assay [3], 852 nM.

With `CC[C@H]1COc2ccc(F)cc2[C@@H](C)Nc2ccn3ncc(c3n2)C(=O)N1` [Compound 4, (6S,13R)-6-ethyl-11-fluoro-13-methyl-6,7,13,14-tetrahydro-1,15-ethenopyrazolo[4,3-f][1,4,8,10]benzoxatriazacyclotridecin-4(5H)-one], the results for the GI50 at CD74-ROS1 Ba/F3 and on EML4-ALK Ba/F3 were 0.2 nM and 892 nM, respectively. Besides, the values for the IC50 in assay [1], in assay [2] and in assay [3] were 1370 nM, 0.3 nM and 1370 nM, respectively.

Consider `CC[C@@H]1CNC(=O)c2cnn3ccc(nc23)N[C@H](C)c2cc(F)ccc2O1` [Compound 1, (7R,13R)-7-ethyl-11-fluoro-13-methyl-6,7,13,14-tetrahydro-1,15-ethenopyrazolo[4,3-f][1,4,8,10]benzoxatriazacyclotridecin-4(5H)-one], for which the GI50 came to 0.2 nM on CD74-ROS1 Ba/F3 and 13.4 nM on EML4-ALK Ba/F3. In addition, the IC50 in assay [1] was found to be 16.7 nM; in assay [2], 0.2 nM; in assay [3], 67.6 nM.

For `CNC(=O)[C@@H]1CNC(=O)c2cnn3ccc(nc23)N[C@H](C)c2cc(F)ccc2O1` [Compound 14, (7S,13R)-7-(N-methylcarboxamide)-11-fluoro-13-methyl-6,7,13,14-tetrahydro-1,15-ethenopyrazolo[4,3-f][1,4,8,10]benzoxatriazacyclotridecin-4(5H)-one], the GI50 was 300 nM at CD74-ROS1 Ba/F3 and above 10000 nM at EML4-ALK Ba/F3. Besides, the IC50 in assay [1] was above 10000 nM; in assay [2] it was 180 nM; in assay [3] it was 3780 nM.

With `CC[C@@H]1COc2ccc(F)cc2[C@@H](C)Nc2ccn3ncc(c3n2)C(=O)N1` [Compound 2, (6R,13R)-6-ethyl-11-fluoro-13-methyl-6,7,13,14-tetrahydro-1,15-ethenopyrazolo[4,3-f][1,4,8,10]benzoxatriazacyclotridecin-4(5H)-one], the GI50 at CD74-ROS1 Ba/F3 stood at 0.7 nM; on EML4-ALK Ba/F3 it was 681 nM. Also, the IC50 in assay [1] was 354 nM; in assay [2], 6 nM; in assay [3] it was 956 nM.

`CNC(=O)[C@H]1CNC(=O)c2cnn3ccc(nc23)N[C@H](C)c2cc(F)ccc2O1` [Compound 15, (7R,13R)-7-(N-methylcarboxamide)-11-fluoro-13-methyl-6,7,13,14-tetrahydro-1,15-ethenopyrazolo[4,3-f][1,4,8,10]benzoxatriazacyclotridecin-4(5H)-one]: the GI50 on CD74-ROS1 Ba/F3 was 1000 nM; at EML4-ALK Ba/F3, above 10000 nM. For the same molecule, the values for the IC50 in assay [1], in assay [2] and in assay [3] were above 10000 nM, 160 nM and 4790 nM, respectively.

In the case of `CC[C@H]1Nc2ccn3ncc(c3n2)C(=O)NCCOc2ccc(F)cc21` [Compound 19, (13R)-13-ethyl-11-fluoro-6,7,13,14-tetrahydro-1,15-ethenopyrazolo[4,3-f][1,4,8,10]benzoxatriazacyclotridecin-4(5H)-one], the figures for the GI50 at CD74-ROS1 Ba/F3 and on EML4-ALK Ba/F3 were 0.5 nM and 406 nM, respectively. In addition, the IC50 in assay [1] was found to be 193 nM; in assay [2], 0.6 nM; in assay [3], 294 nM.
